ChEMBL document CHEMBL1201862, “PubChem BioAssay data set” (2004)
Active and inactive are the calls of the source.

Assays:
[1] = target: Nuclear receptor subfamily 5 group A member 2 (Homo sapiens, UniProt O00482); format: functional, cell-based;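 also: HEK293T cells transfected with LRH-1 and a StAR promoter luciferase reporter; potency for inhibitors that lower LRH-1 driven reporter light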
Steroidogenic factor 1 = Steroidogenic factor 1 (Homo sapiens, UniProt Q13285); experiment: Counterscreen for inverse agonists of the liver receptor homolog-1 (LRH-1; NR5A2): Luminescence-based cell-based high throughput dose response assay to identify inverse agonists of the Steroidogenic Factor 1 Nuclear Receptor (SF1; NR5A1).; format: functional
Sequence of Steroidogenic factor 1 (Q13285 whole entry): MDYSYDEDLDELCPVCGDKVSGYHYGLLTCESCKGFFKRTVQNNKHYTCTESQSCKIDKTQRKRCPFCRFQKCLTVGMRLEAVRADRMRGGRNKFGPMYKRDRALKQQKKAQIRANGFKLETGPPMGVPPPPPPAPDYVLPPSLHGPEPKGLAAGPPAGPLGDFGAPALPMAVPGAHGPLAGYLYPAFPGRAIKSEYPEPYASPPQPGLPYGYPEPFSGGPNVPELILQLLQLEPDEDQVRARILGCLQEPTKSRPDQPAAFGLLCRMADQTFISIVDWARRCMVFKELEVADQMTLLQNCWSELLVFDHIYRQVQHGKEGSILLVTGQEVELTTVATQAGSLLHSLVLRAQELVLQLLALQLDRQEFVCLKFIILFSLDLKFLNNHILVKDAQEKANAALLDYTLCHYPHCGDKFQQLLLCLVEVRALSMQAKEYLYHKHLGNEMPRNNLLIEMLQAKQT

[2] = nonselective StAR promoter luciferase inhibitors – cell-based, luminescence, luciferase reporter, counter-screen for LRH-1 inverse agonist project, dose response (AID 651969); format: functional
[3] = target: T1, Trace amine-associated receptor 1 (Homo sapiens, UniProt Q96RJ0); experiment: Fluorescence-based cell-based high throughput dose response assay to identify agonists of the human trace amine associated receptor 1 (TAAR1).; format: functional
T1 sequence (Q96RJ0 whole entry): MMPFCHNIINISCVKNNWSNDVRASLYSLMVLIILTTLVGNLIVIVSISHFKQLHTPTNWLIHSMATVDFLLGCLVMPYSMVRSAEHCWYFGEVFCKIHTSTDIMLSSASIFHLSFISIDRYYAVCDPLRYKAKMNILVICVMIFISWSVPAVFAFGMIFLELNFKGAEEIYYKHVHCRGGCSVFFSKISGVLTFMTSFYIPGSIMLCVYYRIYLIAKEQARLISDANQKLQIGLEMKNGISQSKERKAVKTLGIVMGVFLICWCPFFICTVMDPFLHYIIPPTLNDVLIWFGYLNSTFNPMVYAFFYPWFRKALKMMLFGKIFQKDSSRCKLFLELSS

cells [4] = format: functional, cell-based
[5] = target: T1, Trace amine-associated receptor 1; experiment: Counterscreen for agonists of the human trace amine associated receptor 1 (hTAAR1): Fluorescence-based cell-based high throughput dose response assay to identify hTAAR1 agonist that also desensitize TAAR1 receptor response.; format: functional
cells [6] = format: functional, cell-based; remark: listed apart in the source
[7] = target: FAD-linked sulfhydryl oxidase ALR (Homo sapiens, UniProt P55789); experiment: ALR-catalysed DTT oxidation blockers – biochemical, H2O2 detection, luminescence, cherry-pick, dose response (AID 493248)
Sequence of FAD-linked sulfhydryl oxidase ALR (P55789 whole entry): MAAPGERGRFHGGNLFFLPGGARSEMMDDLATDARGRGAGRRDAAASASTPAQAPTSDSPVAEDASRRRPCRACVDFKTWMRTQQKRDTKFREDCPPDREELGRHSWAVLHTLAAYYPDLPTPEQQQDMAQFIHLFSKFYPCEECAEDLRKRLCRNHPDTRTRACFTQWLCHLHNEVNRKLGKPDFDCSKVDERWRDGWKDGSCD

[8] = Counterscreen for activators of the function of SWI/SNF related, matrix associated, actin dependent regulator of chromatin, subfamily a, member 2 (SMARCA2, BRM): Luminescence-based cell-based high throughput dose response assay to identify non-selective compounds using the VP16 reporter assay.; format: functional
[9] = target: SWI/SNF-related matrix-associated actin-dependent regulator of chromatin subfamily A member 2 (Homo sapiens, UniProt P51531); experiment: Luminescence-based cell-based high throughput dose response assay to identify activators of the function of SWI/SNF related, matrix associated, actin dependent regulator of chromatin, subfamily a, member 2 (SMARCA2, BRM).; format: functional
Sequence of SWI/SNF-related matrix-associated actin-dependent regulator of chromatin subfamily A member 2 (P51531 whole entry): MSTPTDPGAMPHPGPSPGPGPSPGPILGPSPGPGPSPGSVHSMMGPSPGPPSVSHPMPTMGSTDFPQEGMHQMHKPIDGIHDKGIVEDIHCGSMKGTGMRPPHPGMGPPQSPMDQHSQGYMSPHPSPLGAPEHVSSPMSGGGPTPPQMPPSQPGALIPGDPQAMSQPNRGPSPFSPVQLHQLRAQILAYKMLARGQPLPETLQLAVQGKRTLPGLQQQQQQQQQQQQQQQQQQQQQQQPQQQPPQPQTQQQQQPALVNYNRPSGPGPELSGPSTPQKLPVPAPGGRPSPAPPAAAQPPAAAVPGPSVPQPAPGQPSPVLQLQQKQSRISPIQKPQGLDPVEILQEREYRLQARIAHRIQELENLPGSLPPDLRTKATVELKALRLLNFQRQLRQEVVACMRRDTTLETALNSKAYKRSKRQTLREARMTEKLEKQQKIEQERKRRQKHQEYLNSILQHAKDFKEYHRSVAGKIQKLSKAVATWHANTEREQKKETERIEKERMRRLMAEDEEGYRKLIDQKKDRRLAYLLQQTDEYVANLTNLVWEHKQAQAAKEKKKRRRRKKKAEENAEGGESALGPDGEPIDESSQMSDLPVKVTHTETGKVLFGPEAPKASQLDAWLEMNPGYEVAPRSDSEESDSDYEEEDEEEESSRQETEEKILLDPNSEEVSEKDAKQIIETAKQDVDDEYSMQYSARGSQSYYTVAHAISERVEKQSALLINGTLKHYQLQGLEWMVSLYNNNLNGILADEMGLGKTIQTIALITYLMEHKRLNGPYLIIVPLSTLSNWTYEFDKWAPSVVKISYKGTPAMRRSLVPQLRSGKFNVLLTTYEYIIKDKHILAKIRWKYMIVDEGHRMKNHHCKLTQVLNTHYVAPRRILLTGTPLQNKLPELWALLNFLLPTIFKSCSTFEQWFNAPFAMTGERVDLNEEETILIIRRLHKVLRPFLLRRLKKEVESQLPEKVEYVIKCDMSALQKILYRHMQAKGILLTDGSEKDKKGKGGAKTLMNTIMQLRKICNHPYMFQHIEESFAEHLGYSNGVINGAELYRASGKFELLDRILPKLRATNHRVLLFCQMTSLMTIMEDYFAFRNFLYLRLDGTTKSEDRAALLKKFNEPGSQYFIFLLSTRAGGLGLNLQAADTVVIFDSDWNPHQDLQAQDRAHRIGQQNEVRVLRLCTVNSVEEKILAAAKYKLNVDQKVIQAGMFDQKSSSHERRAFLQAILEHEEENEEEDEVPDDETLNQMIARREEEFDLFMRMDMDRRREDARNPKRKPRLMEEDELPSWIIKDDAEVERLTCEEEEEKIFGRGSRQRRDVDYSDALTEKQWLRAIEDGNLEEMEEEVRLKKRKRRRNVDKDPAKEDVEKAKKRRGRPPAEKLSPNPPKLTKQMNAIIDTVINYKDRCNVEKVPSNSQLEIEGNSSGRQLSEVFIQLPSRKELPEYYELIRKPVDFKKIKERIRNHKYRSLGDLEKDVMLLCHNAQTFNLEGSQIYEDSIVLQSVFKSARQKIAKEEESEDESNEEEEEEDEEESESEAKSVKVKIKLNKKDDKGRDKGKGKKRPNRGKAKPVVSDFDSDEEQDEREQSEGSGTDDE

Insulin-degrading enzyme [10] = target: T2, Insulin-degrading enzyme (Homo sapiens, UniProt P14735); experiment: recombinant IDE activation, cell-free – biochemical, fluorescence polarization, counter-screen for IDE activator project, dose response (AID 588681)
T2 sequence (P14735 whole entry): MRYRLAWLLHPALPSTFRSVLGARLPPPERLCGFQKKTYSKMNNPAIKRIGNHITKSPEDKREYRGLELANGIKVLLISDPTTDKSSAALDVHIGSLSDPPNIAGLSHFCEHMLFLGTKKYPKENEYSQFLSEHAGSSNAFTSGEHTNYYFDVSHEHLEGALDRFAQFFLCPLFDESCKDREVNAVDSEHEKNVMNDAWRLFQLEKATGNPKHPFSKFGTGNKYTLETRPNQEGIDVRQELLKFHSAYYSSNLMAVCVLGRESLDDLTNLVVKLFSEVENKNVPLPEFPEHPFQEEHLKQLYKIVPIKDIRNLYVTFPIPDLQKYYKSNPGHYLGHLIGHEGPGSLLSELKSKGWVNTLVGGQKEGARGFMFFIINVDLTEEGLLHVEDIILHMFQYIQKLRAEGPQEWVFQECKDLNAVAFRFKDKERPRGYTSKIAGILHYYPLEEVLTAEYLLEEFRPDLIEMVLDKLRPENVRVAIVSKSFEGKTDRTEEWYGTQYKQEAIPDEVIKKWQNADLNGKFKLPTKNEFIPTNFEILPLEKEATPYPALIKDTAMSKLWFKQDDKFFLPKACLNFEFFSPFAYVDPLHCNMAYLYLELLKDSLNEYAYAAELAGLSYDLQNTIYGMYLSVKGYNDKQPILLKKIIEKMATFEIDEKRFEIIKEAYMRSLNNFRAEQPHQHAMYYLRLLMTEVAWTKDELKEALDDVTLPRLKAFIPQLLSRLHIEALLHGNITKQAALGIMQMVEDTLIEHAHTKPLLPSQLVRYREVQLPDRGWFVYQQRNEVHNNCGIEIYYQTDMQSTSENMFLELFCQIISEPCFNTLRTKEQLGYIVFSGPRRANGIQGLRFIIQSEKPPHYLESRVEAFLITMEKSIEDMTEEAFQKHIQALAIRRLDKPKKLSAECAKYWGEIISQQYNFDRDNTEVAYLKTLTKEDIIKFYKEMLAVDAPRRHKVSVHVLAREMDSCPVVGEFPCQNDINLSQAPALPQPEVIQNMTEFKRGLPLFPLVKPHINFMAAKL

HEK293 [11] = experiment: optical interference in Abeta FP readout, dose response, artefact control for IDE activator project, biochemical, fluorescence polarization (AID 588442); format: functional, cell-based; details: Homo sapiens
HEK293 [12] = experiment: membrane integrity loss in HEK cells – cell-based, fluorescence, cytotoxicity control for IDE activator project, dose response (AID 588440); format: functional; details: Homo sapiens;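 also: cytotoxicity by LDH release measuring loss of membrane integrity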
Insulin-degrading enzyme [13] = target: T2, Insulin-degrading enzyme; experiment: cellular IDE activation of Abeta substrate cleavage – fluorescence polarization, HEK cells, dose response (AID 588439); format: functional, cell-based
[14] = target: Low molecular weight phosphotyrosine protein phosphatase (Homo sapiens, UniProt P24666); format: functional; details: read-out: IC50_Mean;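 also: Dose-response confirmation assay measuring inhibition of LMPTP enzyme activity by fluorescence intensity read-out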
Sequence of Low molecular weight phosphotyrosine protein phosphatase (P24666 whole entry): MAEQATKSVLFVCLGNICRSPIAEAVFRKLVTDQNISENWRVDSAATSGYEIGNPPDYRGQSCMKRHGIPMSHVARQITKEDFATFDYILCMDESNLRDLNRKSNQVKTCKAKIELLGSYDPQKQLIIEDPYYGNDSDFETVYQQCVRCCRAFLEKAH

[15] = loss of viability in HepG2 cells – cell-based, CellTiter-Glo, cherry-picked, cytotoxicity control for Shn3 inhibitor project, dose response (AID 624134); format: functional
[16] = non-specific 3'UTR reporter inhibition in Clone20-Shn3RL – cell-based, Renilla luciferase, cherry-picked, counter-screen for Shn3 inhibitor project, dose response (AID 624133); format: functional
[17] = reduction of Shn3 3'UTR-driven luciferase in osteoblasts – cell-based, Clone20 osteoblasts, firefly luciferase, cherry-picked, dose response (AID 624132); format: functional;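 also: firefly luciferase luminescence from reporter carrying the Shn3 3'UTR in osteoblasts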
[18] = activation of miR-122 Renilla sensor silencing – cell-based, Huh7 psiCHECK-miR122, Renilla luciferase, cherry-picked, dose response (AID 651956); format: functional;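 also: huh7 hepatoma cells stably carrying a psiCHECK-2 miR-122 sensor plasmid; renilla luciferase signal reporting endogenous miR-122 activity after 48 h compound exposure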
[19] = Fluorescence-based cell-based high throughput dose response assay for inhibitors of the interaction of nucleotide-binding oligomerization domain containing 2 (NOD2) and the receptor-interacting serine-threonine kinase 2 (RIPK2).; format: functional; details: Homo sapiens
Beta Lactamase = Beta Lactamase (Pseudomonas aeruginosa, UniProt Q932Y6); experiment: BLA reporter interference, concentration series – BLA reporter cells, FRET fluorescence, artefact control for NOD2-RIPK2 interaction inhibitor project, dose response (AID 651552); format: functional, cell-based
Sequence of Beta Lactamase (Q932Y6 whole entry): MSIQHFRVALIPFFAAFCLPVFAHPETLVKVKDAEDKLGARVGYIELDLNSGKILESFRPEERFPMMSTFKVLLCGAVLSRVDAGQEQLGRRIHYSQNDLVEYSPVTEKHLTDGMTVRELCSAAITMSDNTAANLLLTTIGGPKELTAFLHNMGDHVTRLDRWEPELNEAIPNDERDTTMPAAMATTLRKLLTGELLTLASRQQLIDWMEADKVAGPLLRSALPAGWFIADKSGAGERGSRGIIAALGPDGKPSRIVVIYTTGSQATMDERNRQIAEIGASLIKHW

[20] = target: ADP-ribosylation factor GTPase-activating protein 1 (Rattus norvegicus, UniProt Q62848); experiment: Fluorescence polarization-based biochemical high throughput dose response screening assay to identify inhibitors of ADP-ribosylation factor GTPase activating protein 1 (ARFGAP1).; format: functional
Sequence of ADP-ribosylation factor GTPase-activating protein 1 (Q62848 whole entry, the tested form may be a part): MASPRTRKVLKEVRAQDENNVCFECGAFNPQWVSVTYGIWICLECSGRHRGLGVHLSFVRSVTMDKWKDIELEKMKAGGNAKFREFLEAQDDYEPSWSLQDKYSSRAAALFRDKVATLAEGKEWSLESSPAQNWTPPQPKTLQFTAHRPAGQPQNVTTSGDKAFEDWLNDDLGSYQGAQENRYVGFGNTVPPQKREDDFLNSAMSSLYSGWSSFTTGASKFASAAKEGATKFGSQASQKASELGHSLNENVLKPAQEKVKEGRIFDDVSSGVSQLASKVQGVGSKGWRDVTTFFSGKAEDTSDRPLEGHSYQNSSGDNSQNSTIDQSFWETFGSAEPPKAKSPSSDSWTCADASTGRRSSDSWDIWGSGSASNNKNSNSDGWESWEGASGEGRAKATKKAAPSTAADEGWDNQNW

[21] = target: Arf-GAP with SH3 domain, ANK repeat and PH domain-containing protein 1 (Homo sapiens, UniProt Q9ULH1); format: functional;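 also: biochemical fluorescence polarization dose–response screen measuring inhibition of ASAP1; ASAP1 GAP domain stimulating GTP hydrolysis by truncated human ARF1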
[22] = general cell-killing toxicity readout – plate reader, dry powder samples, cytotoxicity control for PAX8 inhibitor project, dose response (AID 743021); format: functional, cell-based
Paired box protein Pax-8 = Paired box protein Pax-8 (Homo sapiens, UniProt Q06710); experiment: PAX8 transcriptional activity inhibition in RMG-I – RMG-I cells, luciferase, cherry-pick, dose response (AID 687027); format: functional, cell-based;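 also: luciferase reporter driven by Pax8 target thyroperoxidase promoter measured by SteadyGlo luminescence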
Sequence of Paired box protein Pax-8 (Q06710 whole entry): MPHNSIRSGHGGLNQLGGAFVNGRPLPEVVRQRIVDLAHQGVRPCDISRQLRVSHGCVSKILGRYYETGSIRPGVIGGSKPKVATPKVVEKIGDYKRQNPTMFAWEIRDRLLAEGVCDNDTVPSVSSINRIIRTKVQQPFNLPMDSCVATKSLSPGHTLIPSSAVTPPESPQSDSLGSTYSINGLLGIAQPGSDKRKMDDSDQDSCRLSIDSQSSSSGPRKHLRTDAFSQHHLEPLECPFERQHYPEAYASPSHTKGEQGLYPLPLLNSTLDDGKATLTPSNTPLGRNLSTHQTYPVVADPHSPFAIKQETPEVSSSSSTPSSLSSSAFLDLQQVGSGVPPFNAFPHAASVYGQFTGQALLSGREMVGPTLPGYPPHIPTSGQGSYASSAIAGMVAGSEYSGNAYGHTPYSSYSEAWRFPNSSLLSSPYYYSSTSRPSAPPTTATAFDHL

[23] = target: Fructose-bisphosphate aldolase (Mycobacterium tuberculosis, UniProt P9WQA3); experiment: Fluorescence-based biochemical high throughput dose response assay for inhibitors of the fructose-bisphosphate aldolase (FBA) of M. tuberculosis.; format: functional
Sequence of Fructose-bisphosphate aldolase (P9WQA3 whole entry): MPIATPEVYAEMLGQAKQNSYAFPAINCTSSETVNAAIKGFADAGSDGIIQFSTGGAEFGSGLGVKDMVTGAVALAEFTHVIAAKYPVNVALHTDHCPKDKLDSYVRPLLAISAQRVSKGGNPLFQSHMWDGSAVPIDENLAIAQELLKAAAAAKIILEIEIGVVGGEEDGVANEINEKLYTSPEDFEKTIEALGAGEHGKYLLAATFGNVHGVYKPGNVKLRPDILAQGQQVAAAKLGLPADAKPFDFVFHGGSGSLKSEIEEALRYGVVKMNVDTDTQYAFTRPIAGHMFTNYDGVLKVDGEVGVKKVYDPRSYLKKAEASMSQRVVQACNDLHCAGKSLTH

[24] = fluconazole-exposed Candida albicans growth modulators – fluorescence, retest, confirmation (AID 2467); format: functional, cell-based
[25] = NIH-3T3 fibroblast cytotoxicity, dose response, cytotoxicity control, cell-based, fluorescence, Alamar Blue, secondary assay (AID 2327); format: functional;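 also: NIH-3T3 mouse fibroblasts cultured with fluconazole at 8 µg/mL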
[26] = A2780 cell killing – plate reader, dry powder samples, cytotoxicity control, dose response (AID 743046); format: functional, cell-based
[27] = OVCAR-3 cell viability loss – plate reader, dry powder samples, PAX8 inhibitor project, dose response (AID 743044); format: functional, cell-based
cells [28] = format: functional, cell-based; remark: listed apart in the source
cells [29] = format: functional, cell-based; remark: listed apart in the source
[30] = viability loss in THP-1 monocytes – THP-1 cells, cytotoxicity control for Vif-APOBEC3G degradation inhibitor project, dose response (AID 1117359); format: functional; details: THP-1
Estrogen receptor beta = Estrogen receptor beta (Homo sapiens, UniProt Q92731); experiment: blockers of SRC-3 recruitment to ERβ – biochemical, ELISA, streptavidin-HRP readout, orthogonal assay, confirmation (AID 1060)
Sequence of Estrogen receptor beta (Q92731 whole entry): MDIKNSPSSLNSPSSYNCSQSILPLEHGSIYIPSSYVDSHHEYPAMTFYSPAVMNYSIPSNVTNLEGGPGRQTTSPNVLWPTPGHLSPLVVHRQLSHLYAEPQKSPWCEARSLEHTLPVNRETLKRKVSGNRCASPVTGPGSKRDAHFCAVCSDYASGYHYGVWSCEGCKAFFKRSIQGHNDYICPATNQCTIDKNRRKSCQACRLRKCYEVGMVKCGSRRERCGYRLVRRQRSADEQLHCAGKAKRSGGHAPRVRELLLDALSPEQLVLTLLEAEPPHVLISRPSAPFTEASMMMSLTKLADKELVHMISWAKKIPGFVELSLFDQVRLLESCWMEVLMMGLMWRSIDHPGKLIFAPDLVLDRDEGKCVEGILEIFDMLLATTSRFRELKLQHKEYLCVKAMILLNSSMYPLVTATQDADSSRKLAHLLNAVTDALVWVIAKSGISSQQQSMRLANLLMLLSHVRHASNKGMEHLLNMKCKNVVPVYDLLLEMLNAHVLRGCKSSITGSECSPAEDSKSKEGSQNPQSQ

Protein Tat = target: T3, Protein Tat (Human immunodeficiency virus type 1 group M subtype B (isolate HXB2)(HIV-1), UniProt P04608); format: functional;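 also: tat binding to TAR RNA read out by fluorescence polarization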
T3 sequence (P04608 whole entry): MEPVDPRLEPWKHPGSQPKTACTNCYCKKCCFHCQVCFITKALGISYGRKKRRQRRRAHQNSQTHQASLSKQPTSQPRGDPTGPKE

Sequence of Nuclear receptor subfamily 5 group A member 2 (O00482 whole entry): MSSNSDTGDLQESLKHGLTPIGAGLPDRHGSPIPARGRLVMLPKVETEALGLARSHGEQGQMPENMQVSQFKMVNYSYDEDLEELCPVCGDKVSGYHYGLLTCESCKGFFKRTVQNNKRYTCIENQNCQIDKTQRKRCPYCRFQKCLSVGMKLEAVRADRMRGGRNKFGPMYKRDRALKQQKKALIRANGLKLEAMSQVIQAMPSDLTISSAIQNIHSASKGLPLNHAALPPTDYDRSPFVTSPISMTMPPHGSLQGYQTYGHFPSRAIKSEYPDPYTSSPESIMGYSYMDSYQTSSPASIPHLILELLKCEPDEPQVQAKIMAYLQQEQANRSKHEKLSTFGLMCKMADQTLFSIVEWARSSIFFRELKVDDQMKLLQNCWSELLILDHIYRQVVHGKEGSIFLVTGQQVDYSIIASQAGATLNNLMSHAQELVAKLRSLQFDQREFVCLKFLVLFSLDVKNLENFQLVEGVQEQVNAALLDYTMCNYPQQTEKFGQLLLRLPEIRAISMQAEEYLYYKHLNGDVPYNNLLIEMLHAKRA

SMILES: COc1ccc(NC(=O)COC(=O)Cc2c[nH]c3ccccc23)cc1Cl
- IC50 [1]: 25.4 µM (inactive)
- IC50 (Steroidogenic factor 1): 17.6 µM (inactive)
- IC50 [2]: 35.9 µM (inactive)

SMILES: COc1ccc2c(c1)C(SCC(=O)NCCc1ccccc1)CC(C)(C)O2 (stereo unspecified)
- EC50 [3]: 1.04 µM (active)
- IC50 (cells [4]): > 29.9 µM (inactive)
- IC50 [5]: 2.31 µM (active)
- EC50 (cells [6]): > 29.9 µM (inactive)

SMILES: Cc1ccc(O)c(CNc2nc3ccccc3n2C)c1
- AC50 [7]: 9.83 µM (active)
- EC50 [8]: > 91.2 µM (inactive)
- EC50 [9]: > 91.2 µM (inactive)

SMILES: Cc1nc2ccccc2c(=O)n1-c1ccc(C(=O)O)cc1
- EC50 (Insulin-degrading enzyme [10]): > 54.7 µM (inactive)
- EC50 (HEK293 [11]): > 55.9 µM (inactive)
- IC50 (HEK293 [12]): > 89.2 µM (inactive)
- EC50 (Insulin-degrading enzyme [13]): > 54.7 µM (inactive)

SMILES: COc1ccccc1CNc1nc(Nc2cccc(-c3cnco3)c2)c2sccc2n1
- IC50 [14]: 42.4 µM (inactive)
- AC50 [15]: 45.6 µM (active)
- AC50 [16]: 9.22 µM (active)
- AC50 [17]: 5.61 µM (active)

SMILES: CO[C@H]1CN(C)C(=O)c2ccc(NC(C)=O)cc2OC[C@@H](C)N(C(=O)CC2CC2)C[C@H]1C
- AC50 [18]: 49.6 µM (active)

SMILES: C=C1C(=O)[C@]23C[C@H]1CCC2[C@@]1(C)C(C[C@@H]3O)[C@](C)(C(=O)OC)CC[C@@H]1OC(C)=O (stereo partly specified)
- IC50 [19]: 0.917 µM (active)
- AC50 [15]: 7.22 µM (active)
- AC50 [16]: 3.51 µM (active)
- IC50 (Beta Lactamase): 18 µM (inactive)
- AC50 [17]: 2.14 µM (active)

SMILES: COc1ccc(-n2nnnc2SCC(=O)c2ccc3c(c2)OCCO3)c(OC)c1
- IC50 [20]: 17.7 µM (inactive)
- IC50 [21]: 12.6 µM (inactive)

SMILES: O=C(CSC1=NS(=O)(=O)c2ccccc2N1)NCCc1ccccc1
- EC50 [3]: 3.33 µM (active)
- IC50 (cells [4]): > 29.9 µM (inactive)
- IC50 [5]: 6.94 µM (active)
- EC50 (cells [6]): > 29.9 µM (inactive)

SMILES: C=C1C(=O)[C@]23C[C@H]1CCC2[C@@]1(C)C(C[C@@H]3O)[C@](C)(C(=O)OC)CC[C@@H]1O (stereo partly specified)
- IC50 [19]: 2.3 µM (active)
- AC50 [22]: 38.2 µM (active)
- AC50 [15]: 15.8 µM (active)
- AC50 [16]: 7.06 µM (active)
- IC50 (Beta Lactamase): 24.2 µM (inactive)
- AC50 (Paired box protein Pax-8): 1.71 µM (active)
- AC50 [17]: 2.58 µM (active)

SMILES: CCOC(=O)c1cnc2ccc(C)cn2c1=O
- IC50 [23]: 1.23 µM (active)

SMILES: COc1ccc(NC(=O)c2ccc([N+](=O)[O-])o2)cc1
- EC50 [24]: 3.55 µM (active)
- EC50 [8]: > 91.1 µM (inactive)
- EC50 [25]: 28.2 µM (active)
- EC50 [9]: > 91.1 µM (inactive)

SMILES: O=C(COc1ccc(S(=O)(=O)N2CCCC2)cc1Cl)Nc1ccc2c(c1)OCO2
- IC50 [1]: 35.9 µM (inactive)
- IC50 (Steroidogenic factor 1): 9.54 µM (active)
- IC50 [2]: 35.9 µM (inactive)

SMILES: CO[C@@H]1CN(C)C(=O)c2cc(NC(=O)c3ccc(-c4ccccc4)cc3)ccc2OC[C@H](C)NC[C@H]1C
- AC50 [22]: 40.4 µM (active)
- AC50 [26]: 37.2 µM (active)
- AC50 (Paired box protein Pax-8): 25.3 µM (active)
- AC50 [27]: 42.2 µM (active)

SMILES: Cc1cc(OC(C)C(=O)NCCCN2CCOCC2)c2c(C)cc(=O)oc2c1 (stereo unspecified)
- IC50 [23]: 1.32 µM (active)

SMILES: Cc1ccc2nc(SCC(=O)N3CCCCC3)nc(=O)n2c1
- IC50 [20]: 32 µM (inactive)
- EC50 (cells [28]): > 350 µM (not active)
- EC50 (cells [29]): > 350 µM (not active)
- IC50 [21]: 45.9 µM (inactive)

SMILES: COc1cc(C2Nc3cccc4cccc(c34)N2)cc(OC)c1O
- CC50 [30]: 2.1 µM (active)
- IC50 (Estrogen receptor beta): 5.04 µM (not active)
- EC50 (Insulin-degrading enzyme [10]): > 54.7 µM (inactive)
- EC50 (HEK293 [11]): > 55.9 µM (inactive)
- IC50 (HEK293 [12]): > 89.2 µM (inactive)
- IC50 (Protein Tat): 13.1 µM (inconclusive)
- EC50 (Insulin-degrading enzyme [13]): > 54.7 µM (inactive)
